Laboratory results taken from patent US20100331348A1, “TROPANE DERIVATIVES USEFUL AS PESTICIDES” (SYNGENTA CROP PROTECTION, INC., priority 2007, published 2010).
Like-named read-outs stand apart in the source and are kept apart here.

Key:
[1] = test system: Plasmopara viticola; experiment: Plasmopara viticola (downy mildew of grapevine) leaf disk assay; format: in vivo; conditions: foliar, 168 h, preventive, seven days after inoculation, read-out: control of fungal infection, Plasmopara viticola
[2] = test system: Puccinia recondita f.sp. tritici; experiment: Puccinia recondita f.sp. tritici (wheat brown rust) leaf disk assay; format: in vivo; conditions: foliar, 216 h, preventive, nine days after inoculation, read-out: control of fungal infection, Puccinia recondita f.sp. tritici
[3] = test system: Erysiphe graminis f.sp. tritici; experiment: Erysiphe graminis f.sp. tritici (wheat powdery mildew) leaf disk assay; format: in vivo; conditions: Blumeria graminis, foliar, 96 h, preventive, four days after inoculation, read-out: control of fungal infection, Erysiphe graminis fsp. tritici
[4] = test system: Aedes aegypti; experiment: Aedes aegypti (Yellow fever mosquito) larvae test; format: in vivo; conditions: 48 h
[5] = test system: Phytophthora infestans; experiment: whole plant or invertebrate; format: in vivo; conditions: foliar, 96 h, read-out: control of fungal infection, Phytophthora infestans
[6] = test system: Pyricularia oryzae; experiment: whole plant or invertebrate; format: in vivo; conditions: foliar, 96 h
[7] = test system: Plutella xylostella; experiment: Plutella xylostella (Diamond back moth) artificial diet test; conditions: 120 h, read-out: control of Plutella xylostella
[8] = read-out: control of fungal infection, Pyricularia oryzae (at least 60% list)
[9] = read-out: control of fungal infection, Pyricularia oryzae (at least 80% list)

**Q.** `Cc1nn(C)c2nccc(N3C4CCC3CC(=NOCc3ccccc3)C4)c12` [Example 5.253] was tested. Which pest or weed control at 200 ppm [1] did it give?
**A.** ≥ 80%

**Q.** Which pest or weed control at 200 ppm [1] does the source give for `c1nc(N2C3CCC2CC(=NOCCC2CCCCC2)C3)c2ccsc2n1` [Example 5.136] here?
**A.** ≥ 80%

**Q.** `CCc1ncnc(N2C3CCC2CC(=NOCc2cccc(F)c2)C3)c1Cl` [Example 5.48] was tested. Which pest or weed control at 200 ppm [2] did it give?
**A.** ≥ 80%

**Q.** What about the pest or weed control at 200 ppm [3] of the same compound?
**A.** ≥ 80%

**Q.** What about the pest or weed control at 2 ppm [4] of the same compound?
**A.** ≥ 80%

**Q.** What about the pest or weed control at 200 ppm [5] of the same compound?
**A.** ≥ 80%

**Q.** For `O=C(C=C1CC2CCC(C1)N2c1ncnc2sccc12)Nc1ccc(Cl)cc1` [Example 3.17], which pest or weed control at 200 ppm [1] is on record?
**A.** ≥ 80%

**Q.** For `CCc1ncnc(N2C3CCC2CC(=NOCc2nc(C)cc(Cl)n2)C3)c1Cl` [Example 5.13], which pest or weed control at 200 ppm [3] is on record?
**A.** ≥ 80%

**Q.** And the pest or weed control at 200 ppm [1]?
**A.** ≥ 80%

**Q.** Which pest or weed control at 200 ppm [2] does the source give for `CC(NC(=O)C=C1CC2CCC(C1)N2c1ncnc2sccc12)c1ccccc1` (stereo not shown) [Example 3.22] here?
**A.** ≥ 80%

**Q.** What about the pest or weed control at 200 ppm [1] of the same compound?
**A.** ≥ 80%

**Q.** How did the pest or weed control at 200 ppm [1] turn out when `CCc1ncnc(N2C3CCC2CC(=NOc2nc(Cl)ccc2C(F)(F)F)C3)c1Cl` [Example 5.117] was run?
**A.** ≥ 80%

**Q.** How did the pest or weed control at 200 ppm [2] turn out when `Fc1cc(F)c(F)c(CON=C2CC3CCC(C2)N3c2ncnc3sccc23)c1` [Example 5.227] was run?
**A.** ≥ 80%

**Q.** What about the pest or weed control at 200 ppm [3] of the same compound?
**A.** ≥ 80%

**Q.** What about the pest or weed control at 2 ppm [4] of the same compound?
**A.** ≥ 80%

**Q.** What about the pest or weed control at 200 ppm [5] of the same compound?
**A.** ≥ 80%

**Q.** What about the pest or weed control at 200 ppm [6, 8] of the same compound?
**A.** ≥ 60%

**Q.** How did the pest or weed control at 200 ppm [2] turn out when `CCc1ncnc(N2C3CCC2CC(=NOCc2ccccc2C)C3)c1Cl` [Example 5.10] was run?
**A.** ≥ 80%

**Q.** What about the pest or weed control at 200 ppm [3] of the same compound?
**A.** ≥ 80%

**Q.** What about the pest or weed control at 200 ppm [5] of the same compound?
**A.** ≥ 80%

**Q.** And the pest or weed control at 200 ppm [7]?
**A.** ≥ 80%

**Q.** What does the source list for `CCc1ncnc(N2C3CCC2CC(=NOCc2ccc(F)c(F)c2F)C3)c1Cl` [Example 5.81]?
**A.** pest or weed control at 200 ppm [2]: ≥ 80%; pest or weed control at 200 ppm [3]: ≥ 80%; pest or weed control at 2 ppm [4]: ≥ 80%; pest or weed control at 200 ppm [5]: ≥ 80%; pest or weed control at 200 ppm [6, 8]: ≥ 60%

**Q.** `c1cnc(OC2C[C@H]3CC[C@@H](C2)N3c2ncnc3sccc23)nc1` (stereo partly shown) [Example 1.2] was tested. Which pest or weed control at 200 ppm [2] did it give?
**A.** ≥ 80%

**Q.** And the pest or weed control at 200 ppm [3]?
**A.** ≥ 80%

**Q.** And the pest or weed control at 200 ppm [5]?
**A.** ≥ 80%

**Q.** And the pest or weed control at 200 ppm [6, 9]?
**A.** ≥ 80%

**Q.** How did the pest or weed control at 200 ppm [2] turn out when `FC(F)(F)c1ccc(OC2C[C@H]3CC[C@@H](C2)N3c2ncnc3sccc23)nc1` (stereo partly shown) [Example 2.61] was run?
**A.** ≥ 80%

**Q.** And the pest or weed control at 200 ppm [3]?
**A.** ≥ 80%

**Q.** And the pest or weed control at 200 ppm [5]?
**A.** ≥ 80%

**Q.** And the pest or weed control at 200 ppm [6, 8]?
**A.** ≥ 60%

**Q.** Which pest or weed control at 200 ppm [2] does the source give for `Clc1cccc(CON=C2CC3CCC(C2)N3c2ncnc3sccc23)c1` [Example 5.150] here?
**A.** ≥ 80%

**Q.** And the pest or weed control at 200 ppm [3]?
**A.** ≥ 80%

**Q.** And the pest or weed control at 2 ppm [4]?
**A.** ≥ 80%

**Q.** What about the pest or weed control at 200 ppm [5] of the same compound?
**A.** ≥ 80%

**Q.** What about the pest or weed control at 200 ppm [6, 8] of the same compound?
**A.** ≥ 60%

**Q.** Which pest or weed control at 200 ppm [3] does the source give for `CSc1nc(C)cc(OC2C[C@H]3CC[C@@H](C2)N3c2ncnc3sccc23)n1` (stereo partly shown) [Example 1.77] here?
**A.** ≥ 80%

**Q.** And the pest or weed control at 200 ppm [1]?
**A.** ≥ 80%

**Q.** Which results are given for `Fc1cc(CON=C2CC3CCC(C2)N3c2ncnc3sccc23)cc(C(F)(F)F)c1F` [Example 5.235]?
**A.** pest or weed control at 200 ppm [2]: ≥ 80%; pest or weed control at 200 ppm [3]: ≥ 80%; pest or weed control at 200 ppm [5]: ≥ 80%; pest or weed control at 200 ppm [6, 8]: ≥ 60%

**Q.** For `Clc1cc(ON=C2CC3CCC(C2)N3c2ncnc3sccc23)nc(Cl)n1` [Example 5.154], which pest or weed control at 200 ppm [1] is on record?
**A.** ≥ 80%

**Q.** Which pest or weed control at 200 ppm [2] does the source give for `Fc1ccc(CON=C2CC3CCC(C2)N3c2ncnc3sccc23)cc1F` [Example 5.185] here?
**A.** ≥ 80%

**Q.** And the pest or weed control at 200 ppm [3]?
**A.** ≥ 80%

**Q.** What about the pest or weed control at 2 ppm [4] of the same compound?
**A.** ≥ 80%

**Q.** And the pest or weed control at 200 ppm [5]?
**A.** ≥ 80%

**Q.** And the pest or weed control at 200 ppm [6, 8]?
**A.** ≥ 60%

**Q.** What about the pest or weed control at 200 ppm [6, 9] of the same compound?
**A.** ≥ 80%

**Q.** What about the pest or weed control at 200 ppm [7] of the same compound?
**A.** ≥ 80%

**Q.** Which results are given for `CCC(=O)c1ccc(OC2C[C@H]3CC[C@@H](C2)N3c2ncnc3sccc23)cc1` (stereo partly shown) [Example 1.256]?
**A.** pest or weed control at 200 ppm [2]: ≥ 80%; pest or weed control at 2 ppm [4]: ≥ 80%; pest or weed control at 200 ppm [5]: ≥ 80%

**Q.** What does the source list for `Brc1cccc(CON=C2CC3CCC(C2)N3c2ncnc3sccc23)c1` [Example 5.181]?
**A.** pest or weed control at 200 ppm [2]: ≥ 80%; pest or weed control at 200 ppm [3]: ≥ 80%; pest or weed control at 2 ppm [4]: ≥ 80%; pest or weed control at 200 ppm [5]: ≥ 80%; pest or weed control at 200 ppm [6, 8]: ≥ 60%
